Test results taken from US5837728A, “9-cis retinoic acid esters and amides and uses thereof” (priority 1995, dated 1998).

Experiments:
[1] = tested on: ornithine decarboxylase (ODC); assay: ODC/Retinoid Bioassay: inhibition of TPA induced ornithine decarboxylase activity; assay type: in vivo, CD-1 mice; conditions: for ODC activity reduction: topical, 1.7 nM (as printed in Table 2), TPA induced
Description: The ODC/Retinoid Bioassay is based on the method of Verma, A. K. and Boutwell, R. K., Cancer Res. (1977) 37:2196-2201. The ODC assay measures a compounds effect on the prevention of the induction of ODC, namely the effect of the retinoid compound on the inhibition of the tumor promoter 12-O-tetradecanoylphorbol-13-acetate (TPA) induced ODC activity. The assay is carried out using CD-1 mice (aged 7 to 9 weeks). The dorsal hair of the mice is shaved 3-4 days before testing. Four mice are used for each point. The test retinoids, at one of two dose levels (1.7 and 17 nmoles) dissolved in 0.2 ml of acetone is applied topically to the back of each shaved mouse. A single dose of TPA ([…]) is applied to the back of each treated mouse 30 minutes later. Control groups are treated with either acetone alone, TPA, or tretinoin. The mice are sacrificed by cervical dislocation 5 hours after TPA treatment.
The dorsal skin encompassing the shaved and TPA exposed area is excised and placed in a 100 ml beaker containing distilled water maintained at 51° C.-57° C. The skin is soaked for 50-70 seconds at this temperature with intermittent stirring. The skin is placed epidermis side up in a chilled (0°-5° C.) stainless steel plate and the epidermal layer is scraped off with a razor blade. The epidermal layers from the 4 mice are pooled and placed in a homogenization tube with 2 ml of ODA buffer ([…] with […] pyridoxal phosphate, […] ethylenediaminetetraacetic acid (EDTA), 1 mM dithiothreitol, pH 7.5). The pooled epidermal layers are homogenized for 15 seconds at 0° C. using a Polytron homogenizer at a setting of 7.5. The homogenate is centrifuged at 30,000×g and the supernatant fraction is pipetted into a storage tube and frozen for about 72 hours.
The homogenate is assayed for ODC activity as described by Verma and Boutwell to measure the release of ^14 CO2 from labeled DL(1-14C) ornithine. Incubations are carried out in disposable centrifuge tubes with center well holders containing filter paper impregnated with sodium hydroxide to absorb ^14 CO2. The incubation mixture consisted of 90 μl of L-ornithine, 350 μl of ODC buffer, 100 μl of 14C-ornithine (1.32 nm, Sp. Act:4.4 pCi/pM) and 10 μl of test sample. After incubation at 37° C. for 45 minutes, 0.5 ml of 2M chilled citric acid (4° C.) is added and incubation is continue for an additional 30 minutes to insure complete absorption of ^14 CO2. The filter paper is removed from the center well holders and set in 1 ml of water in capped scintillation vials for at least 1 hour before adding RBI 3820 scintillation cocktail. Radioactivity is measured in a Tri Carb Scintillation Counter. Results are expressed as pmol of ^14 CO2 released in 30 minutes per milligram of protein based on the specific activity of DL-14C-ornithine. The results are expressed in Table 2 below as the % reduction in ODC activity as compared to the control, for the compounds of each of the preceding Examples: […]

[2] = tested on: pseudocomedone (utriculus) of the rhino mouse; assay: Topical rhino mouse pseudocomedone (utriculus) reduction assay; assay type: in vivo; parameters: Utriculus reduction (Table 1) / Utriculus reduction (Table 3): key to the marks not given beside the values; conditions: concentration 0.1 (unit not given)
Description: A topical assay to test for pseudocomedone (utriculus) reduction in the rhino mouse is conducted.
Each test compound and a vehicle control is applied topically to the dorsal trunk of the rhino mouse. The utriculus diameters are measured with a ocular micrometer. […] Kligman, et al., The Effect on Rhino Mouse Skin of Agents which Influence Keratinization and Exfoliation, J. Invest. Derm. […] Van Scott, Experimental Animal Integumental Models for Screening Potential Dermatologic Drugs, In Pharmacology of the Skin, eds. […] Mann, Hair Loss and Cyst Formation in Hairless and Rhino Mutant Mice, Anat. Rec. […] Mezick, et al., Topical and Systemic Effects of Retinoids on Horn-Filled Utriculus Size in the Rhino Mouse. A Model to Quantify Antikeratinizing Effects of Retinoids, J. Invest. Derm. […] Mezick, et al., Anti-Acne Activity of Retinoids in the Rhino Mouse, In Models in Dermatology, eds.
(§1) The dorsal trunk of the rhino mouse is the test site. Each test compound is dissolved in alcohol:propylene glycol (70:30, v:v) or other suitable vehicle and topically applied (0.1 ml) to the dorsal trunk once daily, five consecutive days/week for two weeks. Also, administration may be oral (p.o.) in a suitable vehicle. Following treatment, the animals are sacrificed by cervical dislocation. The treated dorsal trunk skin is removed from the animal and placed into 0.5% acetic acid for up to 18 hours at approximately 4° C. After this, the epidermis with the acne cysts is separated from the underlying dermis. The sheets of epidermis are processed by routine methods to permanent whole mounts for microscopic examination. Also, full-thickness samples may be taken, stained (H&E), and examined by light microscopy.
The utriculus diameters are measured with an ocular micrometer to compare effects of test compounds to vehicle control and/or reference compound on cyst reduction. Light microscopy is used to determine effects on cell differentiation.
Another topical assay is conducted following the procedure described above.
Each test compound and a vehicle control was applied topically to the dorsal trunk of the rhino mouse. The utriculus diameters are measured with a ocular micrometer. […] Kligman, et al., J. Invest. […] Van Scott, Pharmacology of the Skin, eds. […] Mann, Anat. […] Mezick, et al, J. Invest. […] Mezick et al., Models in Dermatology, eds.
as §1, with “(70:30,v:v)” for “(70:30, v:v)”, “weeks.” for “weeks. Also, administration may be oral (p.o.) in a suitable vehicle.”, “"acne cysts"” for “acne cysts”, “are” for “may be”, “(H&E)” for “(H&E),”, “microscope.” for “microscopy.”

sebaceous gland = assay: Oral hamster sebaceous gland reduction assay; assay type: in vivo, male Syrian golden hamsters; parameters: key to the marks not given beside the values; conditions: 32 mg/kg
Description: An oral assay for hamster sebaceous gland reduction is conducted.
Hamsters are dosed orally with the test compound and vehicle alone. The reduction in sebaceous gland size is estimated microscopically in relation to the control. The assay is unique and proprietary to Ortho Pharmaceutical Corp. and is based upon the work of Plewig et al. (1977) and Gomex et al. (1980). Plewig, et al., Hamster Ear Model for Sebaceous Glands, J. Invest. Derm. 68: 171-176 (1977). Gomez, et al., Effect of 13-cis-Retinoic Acid on the Hamster Flank Organ, J. Invest. Derm. 74: 392-397 (1980).
For oral (p.o.) studies, male Syrian golden hamsters are […] at 5 ml/kg, once daily, five consecutive days/week for two or three weeks. Modified but similar dosing schedules could be used. Control hamsters are dosed with vehicle alone at 5 ml/kg. Following final treatment (up to 72 hours), the hamsters are sacrificed in a CO2 atmosphere. Samples of each test site are placed into 10% buffered formalin and histologically prepared. Serial sections of each sample are stained (H&E) and examined microscopically.
The reduction in sebaceous gland size is estimated microscopically in relation to the control treated sites. To quantify sebaceous gland size, cross-sectional areas are measured with an image analyzer system.

[3] = tested on: Human neonatal foreskin fibroblasts; assay: Growth of human neonatal foreskin fibroblasts (cell number); assay type: cell-based; conditions: for Number of fibroblasts: two days
Source text: (§2) Human neonatal foreskin keratinocytes and human neonatal foreskin fibroblasts were isolated and grown in monlayer culture. Culture medium for keratinocytes was Keratincyte Growth Medium (KGM) from Clonetics, Inc., San Diego. Calif. The culture medium for fibroblasts was Dulbecco's Modified Eagle's Medium (DMEM) supplemented with non-essential amino acids and 10% fetal bovine serum. The culture medium was obtained from GIBCO, Grand Island, N.Y. and the FBS was from Hyclone Labs, Inc., Logan, Utah.
Cells at passage 2-4 were plated in wells of a 24 well dish at approximately 5×10^4 cells per well in their respective culture medium. Incubation was at 37° C. with 5% CO2. After the cells attached and spread overnight, they were washed two times in serum-free keratincyte basal medium (KBM) and incubated in 1 ml of KBM or in 1 ml of KGM. Compound IV was added in varying concentrations to the wells. All-trans-retinoic acid (or no treatment) was added to control wells. The cells were incubated for an additional two days for fibroblasts and three days for keratinocytes, and were then harvested and counted. The effect of IV and of the controls are shown for both cell types in Tables 9 and 10: […]

[4] = tested on: Human neonatal foreskin keratinocytes; assay: Growth of human neonatal foreskin keratinocytes (cell number); assay type: cell-based; conditions: for Number of keratinocytes, KGM / Number of keratinocytes, KMB: three days
Source text: as §2
Cells at passage 2-4 were plated in wells of a 24 well dish at approximately 5×10^4 cells per well in their respective culture medium. Incubation was at 37° C. with 5% CO2. After the cells attached and spread overnight, they were washed two times in serum-free keratincyte basal medium (KBM) and incubated in 1 ml of KBM or in 1 ml of KGM. Compound IV was added in varying concentrations to the wells. […] The cells were incubated for an additional two days for fibroblasts and three days for keratinocytes, and were then harvested and counted.

CCCCCCCC/C=C\CCCCCCCC(=O)OCC(COC(=O)/C=C(C)/C=C/C=C(C)\C=C\C1=C(C)CCCC1(C)C)OC(=O)CCCCCCC/C=C\CCCCCCCC (stereo not drawn) [Compound 9, 1-(9-cis-retinoyloxy)-2,3-dioleoylpropane]
ODC activity reduction [1]: ++

CC1=C(/C=C/C(C)=C\C=C\C(C)=C\C(=O)OCOC(=O)C(C)(C)C)C(C)(C)CCC1 [Compound 6, 9-cis-retinoyloxymethyl 2,2-dimethylpropanoate]
Utriculus reduction (Table 3) [2]: +++ | ODC activity reduction [1]: +++

CCCCCCCCCC(=O)OCC(=O)COC(=O)/C=C(C)/C=C/C=C(C)\C=C\C1=C(C)CCCC1(C)C [Compound 3, 1-(9-cis-retinoyloxy)-3-decanoylyoxy-2-propanone]
ODC activity reduction [1]: +++ | Sebaceous gland reduction (sebaceous gland): +++

CCCCCCCCCCCCCC(=O)O[C@@H]1[C@@H](C)[C@@]2(O)[C@@H](C=C(CO)C[C@]3(O)C(=O)C(C)=C[C@@H]23)[C@@H]2C(C)(C)[C@]12OC(C)=O [TPA, 12-O-tetradecanoylphorbol-13-acetate, reference compound]
ODC activity reduction (TPA control) ([1]; TPA 17.0 nM, control): 0 nM ^14 CO2 /30 min/mg Protein

CC1=C(/C=C/C(C)=C\C=C\C(C)=C\C(=O)OCC(=O)C(C)(C)C)C(C)(C)CCC1 [Compound IV]
Number of fibroblasts ([3]; 0.1 μg/ml): 6.4 ± 0.6 × 10^4 cells | Number of fibroblasts ([3]; 0.25 μg/ml): 5.8 ± 0.1 × 10^4 cells | Number of fibroblasts ([3]; 0.5 μg/ml): 5.5 ± 0.8 × 10^4 cells | Number of fibroblasts ([3]; 1.0 μg/ml): 7.9 ± 0.1 × 10^4 cells | Number of fibroblasts ([3]; 5.0 μg/ml): 8.5 ± 0.6 × 10^4 cells | Number of fibroblasts ([3]; 10.0 μg/ml): 7.5 ± 0.9 × 10^4 cells | Effect on fibroblasts (summary of Tables 9 and 10) ([3]; compared with retinoic acid): less active result with fibroblasts | Number of keratinocytes, KGM ([4]; 0.10 μg/ml): 27.4 ± 0.1 × 10^4 cells | Number of keratinocytes, KMB ([4]; 0.10 μg/ml): 13.1 ± 0.5 × 10^4 cells | Number of keratinocytes, KGM ([4]; 0.25 μg/ml): 25.9 ± 0.4 × 10^4 cells | Number of keratinocytes, KGM ([4]; 0.5 μg/ml): 22.5 ± 0.1 × 10^4 cells | Number of keratinocytes, KMB ([4]; 0.5 μg/ml): 13.8 ± 2.4 × 10^4 cells | Number of keratinocytes, KGM ([4]; 1.0 μg/ml): 21.2 ± 0.8 × 10^4 cells | Number of keratinocytes, KMB ([4]; 1.0 μg/ml): 14.0 ± 0.9 × 10^4 cells | Number of keratinocytes, KGM ([4]; 5.0 μg/ml): 6.4 ± 0.1 × 10^4 cells | Number of keratinocytes, KMB ([4]; 5.0 μg/ml): 11.2 ± 1.2 × 10^4 cells | Number of keratinocytes, KGM ([4]; 10.0 μg/ml): 4.5 ± 0.2 × 10^4 cells | Number of keratinocytes, KMB ([4]; 10.0 μg/ml): 8.4 ± 0.2 × 10^4 cells | Effect on keratinocytes (summary of Tables 9 and 10) ([4]; compared with retinoic acid): potent "retinoid" effect on keratinocytes

CC1=C(/C=C/C(C)=C\C=C\C(C)=C\C(=O)ON2C(=O)CCC2=O)C(C)(C)CCC1 [Compound 10, Succinimidyl 9-cis-retinoate]
Utriculus reduction (Table 3) [2]: ++ | ODC activity reduction [1]: +++

CC1=C(/C=C/C(C)=C\C=C\C(C)=C\C(=O)OCC(=O)CO)C(C)(C)CCC1 [Compound 8, 1-(9-cis-retinoyloxy)-3-hydroxy-2-propanone]
ODC activity reduction [1]: +++

CC1=C(/C=C/C(C)=C\C=C\C(C)=C\C(=O)OCC(=O)COC(=O)/C=C(C)/C=C/C=C(C)\C=C\C2=C(C)CCCC2(C)C)C(C)(C)CCC1 [Compound 4, 1,3-bis-(9-cis-retinoyloxy)-2-propanone]
ODC activity reduction [1]: +++

CC1=C(/C=C/C(C)=C\C=C\C(C)=C\C(=O)OCC(=O)c2ccccc2)C(C)(C)CCC1 [Compound 5, 9-cis-retinoyloxy methyl phenyl ketone]
Utriculus reduction (Table 3) [2]: ++ | ODC activity reduction [1]: ++
